From patent US9243281B2, “Neuroprotective chemicals and methods for identifying and using same” (Board of Regents of The University of Texas System, priority 2013, dated 2016)

Experiments:
[1] = test system: hippocampal neurogenesis (Dentate Gyrus); assay: in vivo neurogenesis assay (BrdU+ cells in dentate gyrus); set-up: species or system mice; conditions: living mice; vehicle (DMSO) 7.3
From the text: The screen was simple in concept. With help from chemists in the Department of Biochemistry at UTSWMC, we selected 1,000 druglike chemicals from the 250,000 compounds in our high throughput screening center. The compounds were selected to preserve representative chemical diversity of the entire library. They were further selected to enhance the representation of chiral molecules, and to avoid untoward chemical properties such as reactive moieties. The 1,000 molecules were randomly pooled into groups of ten, and each pool was administered directly into the left ventricle of two adult mice. Intracranial delivery was facilitated by stereotactic positioning of a canula fed directly by an Alzet mini-pump containing the mixture of ten chemicals. The drug mixture was administered over a week-long period at concentrations anticipated to deliver mid-nanomolar levels of the ten test compounds. Daily injections of the thymidine analog, bromodeoxyuridine (BrdU), were coadministered in order to monitor the formation of new hippocampal nerve cells. Following compound administration, animals were sacrificed such that brain tissue could be recovered, sectioned and stained with antibodies to BrdU. […]

p70 (NAMPT) = biological target: T1, p70 (NAMPT) (Homo sapiens, UniProt P43490); assay: binding competition for photo-crosslinking of P7C3-S326 to p70 in H2122 cells; conditions: 0.3 μM P7C3-S326 plus 5 μM competitor, p70 band intensity, P7C3-S326 alone compared with plus competitor, vehicle 1.0
T1 construct: endogenous in cells; host or cells: H2122 lung cancer cells
Protocol: Cultured cells were co-exposed to P7C3-S326 (0.3 uM) and the individual P7C3 variants (5 uM), exposed to UV light, lysed, clicked to a fluorescent dye and run on SDS gels (FIG. 11).
P7C3-S326 was diluted to 0.3 μM in culture medium to treat H2122 cells. After incubation at 37° C. for 2 hours, H2122 cells were irradiated for 15 minutes under 306 nm ultraviolet light in a Stratalinker 2400 (Stratagene). Cells were then harvested by dissolving in 1% SDS lysis buffer 50 mM HEPES, pH 8.0, 2 mM MgCl2, 10 mM KCl, 1% SDS, 50 units/ml of Benzonase (Sigma), supplemented with Sigmafast protease inhibitor (Sigma).
The reaction was incubated at room temperature with constant agitation at 1,000 rpm on a thermomixer (Eppendorf) for 1 hour. Samples were then mixed with SDS sample loading buffer and loaded on an 8% SDS-PAGE gel, separated, and imaged using a Typhoon imager (filter settings: excitation 533 nm, emission 555 nm, and high sensitivity).
H2122 cells were incubated with the P7C3-S326 (0.3 μM) in the absence or presence of P7C3 analogs for 2 hours following by UV crosslinking. […] The samples were run on SDS-PAGE gels scanned using a Typhoon Imager. The p70 band intensity was analyzed and quantified by Image J, and the relative intensity in each assay was normalized to that of the DMSO control.

T1 sequence (P43490 whole entry): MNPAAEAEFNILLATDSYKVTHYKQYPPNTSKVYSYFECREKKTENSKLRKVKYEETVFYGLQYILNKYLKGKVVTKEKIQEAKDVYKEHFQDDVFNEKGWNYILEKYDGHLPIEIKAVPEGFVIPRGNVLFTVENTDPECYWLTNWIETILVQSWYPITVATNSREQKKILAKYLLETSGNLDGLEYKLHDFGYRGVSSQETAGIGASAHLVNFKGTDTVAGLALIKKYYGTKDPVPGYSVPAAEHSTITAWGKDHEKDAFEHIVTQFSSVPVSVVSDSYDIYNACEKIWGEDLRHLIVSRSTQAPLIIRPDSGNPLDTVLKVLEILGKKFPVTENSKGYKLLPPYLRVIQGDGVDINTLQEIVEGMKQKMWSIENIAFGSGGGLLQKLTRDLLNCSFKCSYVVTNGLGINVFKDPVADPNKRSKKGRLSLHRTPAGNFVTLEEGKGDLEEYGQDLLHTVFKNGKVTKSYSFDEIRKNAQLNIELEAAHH

Structure (SMILES) | Neurogenesis # BrdU+ Cells (X10E06)/mm3 Dentate Gyrus [1] | Binding competition (p70 (NAMPT))
N#Cc1ccc2[nH]c3ccc(Br)cc3c2c1 [S216] | 13.0 (X10E06)/mm3 | 4.4
COc1cccc(S(=O)(=O)CC(O)Cn2c3ccc(Br)cc3c3cc(Br)ccc32)c1 (centres unmarked) [S82] | 11.8 (X10E06)/mm3 | 2.3
CCOC(=O)C1=C[C@]2(CC)CCCN3CCc4c(n1c1ccccc41)[C@@H]32 [S199] | 13.3 (X10E06)/mm3 | 1.1
COc1cccc(NC[C@H](O)Cn2c3ccc(Br)cc3c3cc(Br)ccc32)c1 [S16] | 9.2 (X10E06)/mm3 | 3.1
COc1cccc(SCC(F)Cn2c3ccc(Br)cc3c3cc(Br)ccc32)c1 (centres unmarked) [S79] | 13.7 (X10E06)/mm3 | 1.0
OC(COc1ccccc1)Cn1c2ccc(Br)cc2c2cc(Br)cnc21 (centres unmarked) [S187] | 12.6 (X10E06)/mm3 | 2.9
FC(COc1ccccc1)Cn1c2ccc(Br)cc2c2cc(Br)ccc21 (centres unmarked) [S42] | 11.7 (X10E06)/mm3 | 1.7
CN(C)c1nc(O)c2[nH]c3ccccc3c2n1 [S245] | 16.2 (X10E06)/mm3 | 1.0
COc1cccc(NCC(O)Cn2c3ccc(C)cc3c3cc(Br)ccc32)c1 (centres unmarked) [S14] | 13.5 (X10E06)/mm3 | 4.5
Brc1ccc2[nH]c3ccccc3c2c1 [S236] | 12.3 (X10E06)/mm3 | 1.7
O=S(=O)(CC(O)Cn1c2ccc(Br)cc2c2cc(Br)ccc21)c1ccccc1 (centres unmarked) [S28] | 13.6 (X10E06)/mm3 | 2.8
O=C(O)Cn1c2ccc(Br)cc2c2cc(C(=O)O)ncc21 [S227] | 12.9 (X10E06)/mm3 | 0.9
OC(CNc1ccccc1)Cn1c2ccc(I)cc2c2cc(I)ccc21 (centres unmarked) [S63] | 8.3 (X10E06)/mm3 | 1.5
CN(C)C(CF)CN1c2ccccc2CCc2ccccc21 (centres unmarked) [S149] | 11.6 (X10E06)/mm3 | 1.2
CN(C)CCCC1(c2ccc(F)cc2)OCc2cc(C#N)ccc21 (centres unmarked) [S119, Celexa, reference compound] | 8.6 (X10E06)/mm3 | 1.2
OC(COc1ccccc1)Cn1c2c(c3cc(Br)ccc31)CN(C1CC1)CC2 (centres unmarked) [S106] | 10.9 (X10E06)/mm3 | 1.4
CCOC(=O)c1cc2c(cn1)[nH]c1ccc(Br)cc12 [S205] | 14.6 (X10E06)/mm3 | 2.5
CN1CCc2c(c3cc(Br)ccc3n2CC(O)COc2ccccc2)C1 (centres unmarked) [S131] | 7.3 (X10E06)/mm3 | 3.5
OC(COc1ccccc1)Cn1c2c(c3cc(Br)ccc31)CNCC2 (centres unmarked) [S105] | 10.8 (X10E06)/mm3 | 1.2
OC(COc1ccccc1)Cn1c2ccncc2c2cc(Br)ccc21 (centres unmarked) [S183] | 7.7 (X10E06)/mm3 | 4.0
Cc1ccc2c(c1)c1cc(Br)ccc1n2CC(=O)O [S240] | 14.3 (X10E06)/mm3 | 1.7
CNCCCN1c2ccccc2CCc2ccccc21.Cl [S87, Desipramine, reference compound] | 14.7 (X10E06)/mm3 | 1.2

Structure (SMILES) | Neurogenesis # BrdU+ Cells (X10E06)/mm3 Dentate Gyrus [1] | Binding competition (p70 (NAMPT))
OC(Cn1c2ccc(Br)cc2c2cc(Br)ccc21)Cn1c2ccc(Br)cc2c2cc(Br)ccc21 [S34] | 7.6 (X10E06)/mm3 | 1.0
NC(=O)c1ccc2c(c1)c1cc(Br)ccc1n2CC(=O)O [S238] | 9.4 (X10E06)/mm3 | 0.9
O=S(=O)(CC(O)Cn1c2ccc(Br)cc2c2cc(Br)ccc21)c1ccc(O)cc1 (centres unmarked) [S94] | 8.5 (X10E06)/mm3 | 3.8
CCOC(=O)C1=NCc2c(c3ccccc3n2S(=O)(=O)c2ccc(C)cc2)N1 [S247] | 15.6 (X10E06)/mm3 | 1.6
OCCCc1cn(CC(O)Cn2c3ccc(Br)cc3c3cc(Br)ccc32)nn1 (centres unmarked) [S23] | 7.4 (X10E06)/mm3 | 2.1
NNCCc1ccccc1 [S116, Nardi, reference compound] | 11.0 (X10E06)/mm3 | 1.2
CNC(=O)Cn1c2ccc(Br)cc2c2cc(Br)ccc21 [S214] | 9.9 (X10E06)/mm3 | 1.7
Cc1ccc2[nH]c3ccc(C)cc3c2c1 [S237] | 11.8 (X10E06)/mm3 | 1.5
COc1cccc(NC(=O)C(O)Cn2c3ccc(Br)cc3c3cc(Br)ccc32)c1 (centres unmarked) [S31] | 10.4 (X10E06)/mm3 | 6.2
OC(CCNc1ccccc1)Cn1c2ccc(Br)cc2c2cc(Br)ccc21 (centres unmarked) [S32] | 13.8 (X10E06)/mm3 | 2.7
CN(C)C(=O)COc1ccc(NCC(F)Cn2c3ccc(Br)cc3c3cc(Br)ccc32)cc1 (centres unmarked) [S70] | 7.4 (X10E06)/mm3 | 2.5
OC(CNc1cccc2ccccc12)Cn1c(-c2ccccc2)cc2ccccc21 (centres unmarked) [S185] | 12.6 (X10E06)/mm3 | 1.5
[O-][n+]1ccc2c(c1)c1cc(Br)ccc1n2CC(O)COc1ccccc1 (centres unmarked) [S195] | 9.0 (X10E06)/mm3 | 1.1
NC(=O)c1ccc2c(c1)c1cc(Br)ccc1n2CC(O)COc1ccccc1 (centres unmarked) [S146] | 14.5 (X10E06)/mm3 | 2.8
COc1cccc(N(CC(F)Cn2c3ccc(Br)cc3c3cc(Br)ccc32)S(=O)(=O)C(F)(F)F)c1 (centres unmarked) [S241] | 15.5 (X10E06)/mm3 | 1.3
CCOC(=O)Cn1c2ccc(Br)cc2c2cc(Br)ccc21 [S164] | 7.6 (X10E06)/mm3 | 1.3
OC(CCc1ccccc1)Cn1c2ccc(Br)cc2c2cc(Br)ccc21 (centres unmarked) [S21] | 8.8 (X10E06)/mm3 | 2.3
N[C@@H](Cc1c[nH]c2ccccc12)C(=O)O [S248] | 10.1 (X10E06)/mm3 | 1.3
CC(C)(C)OC(=O)NCCCCCOc1ccc(S(=O)(=O)CC(O)Cn2c3ccc(Br)cc3c3cc(Br)ccc32)cc1 (centres unmarked) [S141] | 11.3 (X10E06)/mm3 | 2.7
O=S(=O)(C[C@@H](O)Cn1c2ccc(Br)cc2c2cc(Br)ccc21)c1ccccc1 [S50] | 16.2 (X10E06)/mm3 | 3.8
Cc1cc(C)n(CC(O)Cn2c3ccc(Br)cc3c3cc(Br)ccc32)n1 (centres unmarked) [S25] | 7.0 (X10E06)/mm3 | 1.4
